In patent US7388006B2, “Non-steroidal progesting” (Bayer Schering Pharma AG, priority 2002, dated 2008):

What was measured:
[1] = target: T1, androgen receptor (AR) (Homo sapiens, UniProt P10275); assay: Binding affinity for the androgen receptor
T1 sequence (P10275 1-920): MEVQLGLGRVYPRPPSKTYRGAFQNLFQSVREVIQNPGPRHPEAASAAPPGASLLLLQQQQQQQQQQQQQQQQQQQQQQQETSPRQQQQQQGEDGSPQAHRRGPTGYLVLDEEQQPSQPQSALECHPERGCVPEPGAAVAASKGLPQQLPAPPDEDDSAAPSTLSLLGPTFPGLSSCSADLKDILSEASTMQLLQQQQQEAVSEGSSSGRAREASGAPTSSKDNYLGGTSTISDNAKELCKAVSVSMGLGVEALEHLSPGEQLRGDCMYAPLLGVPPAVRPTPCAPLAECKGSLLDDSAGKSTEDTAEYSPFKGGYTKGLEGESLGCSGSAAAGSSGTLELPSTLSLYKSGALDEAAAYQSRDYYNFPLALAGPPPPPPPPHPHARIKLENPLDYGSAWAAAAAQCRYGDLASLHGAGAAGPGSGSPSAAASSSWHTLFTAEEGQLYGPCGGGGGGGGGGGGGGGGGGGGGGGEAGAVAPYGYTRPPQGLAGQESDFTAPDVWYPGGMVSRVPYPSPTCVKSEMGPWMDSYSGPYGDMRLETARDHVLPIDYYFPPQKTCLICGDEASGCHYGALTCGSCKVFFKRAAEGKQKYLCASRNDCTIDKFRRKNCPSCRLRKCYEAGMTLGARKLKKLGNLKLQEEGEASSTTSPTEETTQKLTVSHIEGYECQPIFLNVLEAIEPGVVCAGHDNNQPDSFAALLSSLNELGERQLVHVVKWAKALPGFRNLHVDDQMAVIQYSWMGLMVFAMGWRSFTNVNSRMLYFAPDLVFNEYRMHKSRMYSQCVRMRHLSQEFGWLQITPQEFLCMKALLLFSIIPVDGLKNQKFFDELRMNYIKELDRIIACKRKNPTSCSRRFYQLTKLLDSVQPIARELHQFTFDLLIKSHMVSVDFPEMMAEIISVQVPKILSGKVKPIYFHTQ

[2] = tested on: thymus weight; assay: Glucocorticoid/anti-glucocorticoid activity in vivo (changes in thymus weight)
[3] = tested on: ovulation in adult female rats; assay: In vivo test on progestogenic activity - ovulation inhibition (rat); conditions: for Ovulation inhibition, result in words / Ovulation inhibition, factor compared to R5020: rat; for Ovulation inhibition, factor compared to R5020: potency relative to R5020
Method: Before the treatment is started, two […] cycles of female rats (weight: 190 to 210 g) were monitored. Only animals having a regular 4 day-cycle are used for the subsequent test. Starting in the metoestrus, the test compound is administered for 4 days (day 1 to 4) and the cycle is controlled thereafter.
For subcutaneous application, the test compounds are dissolved in benzyl benzoate/castor oil (1+9 v/v) and the daily dose is administered in a volume of 1 ml/kg body weight.
For peroral application, the test compounds are suspended in a carrier liquid (85 mg Myrj^R in 100 ml 0.9% w/v NaCl solution) and the daily dose is administered in a volume of 2 ml/kg body weight.
On day 4, after the application of the test compound, those animals having estrus or metoestrus are ovariectomized under ether anesthesia on one side. Preparations of the tubes are prepared and they are investigated for ova by means of microscope. On day 5 all animals (intact and partly ovariectomized) are killed with carbon dioxide, the tubes are preserved and analyzed in the same way. It is then determined, as a percentage, in how many animals ovulation was inhibited. […] Accordingly, this compound is to be regarded as having strong, progestational activity.

[4] = tested on: prostate weight and seminal vesicle of orchidectomized rats; assay: Androgenic/anti-androgenic activity in vivo in orchidectomized rats (prostate weight, seminal vesicle); set-up: species or system rat
Description: The absence of androgenic as well as anti-androgenic activity in vivo was confirmed by tests performed with orchidectomized rats (change in prostate weight and in the seminal vesicle).

[5] = tested on: pregnancy in ovariectomized rats; assay: Pregnancy maintenance test in rat; assay type: in vivo; conditions: for Maintenance of pregnancy, factor compared to R5020: potency relative to R5020
Description: In rats, castration induces termination of pregnancy. Progestins (combined with estrogens) are capable of maintaining pregnancy in castrated animals. However, the degree of pregnancy maintenance in castrated rats is optimal only in a defined dose range. Therefore, higher as well as lower doses generally induce a weaker effect. Accompanying treatment with defined doses of estrone (E1) increases the pregnancy maintaining effect of progestins.
Pregnant rats (Wistar Han, SPF) of 190 to 220 g (5 to 8 animals per dose) are ovariectomized on day 8 of pregnancy, 2 hours after the first substance administration. From day 8 to day 14, rats are daily treated with test progestin in combination with a standard dose of E1. One day later, animals are killed with carbon dioxide. For each animal, the number of living and dead fetuses is determined according to the heartbeat of the embryos. In case of empty uteri, the number of implantation sites is determined by means of staining with a 10% ammonium sulfide solution.
S.c. (subcutaneous) application: The test progestin is dissolved in benzyl benzoate/castor oil (1+4 v/v), and the daily dose is administered in a volume of 1 ml/kg body weight.
P.o. (peroral) application: The test progestin is suspended in a carrier liquid (85 mg Myrj^R in 100 ml 0.9% w/v NaCl solution), and the daily dose is administered in a volume of 2 ml/kg body weight.
I.p. (intraperitoneal) application: The test progestin is dissolved in propylene glycol and charged in miniature osmotic pumps (type 2001, 1.0 μl/h, 7 days), which are placed in the abdominal cavity of the rat.
The standard dose of estrone is 0.005 mg/kg body weight s.c. and is dissolved in benzyl benzoate/castor oil ([…]).
It is determined the pregnancy maintenance per animal [%], the pregnancy maintenance per dose (median of single values) and the EC50 (dose, at which pregnancy is maintained in 50% of the animals; 100% corresponds to control animals that are not ovariectomized). The results of the test are further discussed below in c).

O=C1OCc2cc(NC(=O)C(O)(CC3(c4cc(C(F)(F)F)ccc4F)CC3)C(F)(F)F)ccc21 (single isomer, unassigned; (+)) [((+)-1), (+)-5-{2-hydroxy-3-[1-(2-fluoro-5-trifluoromethylphenyl)-cyclopropyl]-2-trifluoromethyl-propionylamino}-phthalide]
Binding affinity for the androgen receptor (AR) [1]: moderate binding affinity
Glucocorticoid and anti-glucocorticoid activity in vivo [2]: does not seem to exhibit any glucocorticoid or any anti-glucocorticoid activity in vivo
inhibition at 0.01 mg/kg ([3]; Rattus norvegicus, dose 10 μg/kg, days 1 to 4, female rats): 0%
inhibition at 0.03 mg/kg ([3]; Rattus norvegicus, dose 30 μg/kg, days 1 to 4, female rats): 14%
inhibition at 0.1 mg/kg ([3]; Rattus norvegicus, dose 100 μg/kg, days 1 to 4, female rats): 100%
Ovulation inhibition, result in words [3]: at least as potent as the standard progestin
Ovulation inhibition, factor compared to R5020 ([3]; listed as ((+)-l)): 1 to 2
Ovulation inhibition, factor compared to R5020 ([3]; listed as ((+)−1)): 1-2
Ovulation inhibition, result in words ([3]; listed as ((+)-l)): efficiently inhibited ovulation
Androgenic and anti-androgenic activity in vivo [4]: no androgenic as well as no anti-androgenic activity in vivo
Androgenic activity in the pregnancy maintenance test ([5]; dose 100 times higher than the dose required for maintaining pregnancy): no androgenic activity
Pregnancy-maintaining activity EC50 value ([5]; rat): 12 µg/kg/day
Maintenance of pregnancy, factor compared to R5020 ([5]; rat): eight times as potent
Maintenance of pregnancy, factor compared to R5020 ([5]; rat, listed as ((+)−1)): 8
